System: HepG2 viability, ATP luminescence (CellTiter-Glo), 72 h
Assay: HepG2 cell cytotoxicity, dose response, cytotoxicity control, luminescence, dry powder, set 12 (AID 743471)

Structure (SMILES)	AC35 [µM]
Cn1cc(-c2ccncc2)c(-c2ccc(OCc3ccc4ccccc4n3)cc2)n1	12.9
COc1cccc2c1C(=O)c1c(O)c3c(c(O)c1C2=O)C[C@@](O)(C(=O)CO)C[C@@H]3O[C@H]1C[C@H](N)[C@H](O)[C@H](C)O1	0.0577
CC1(C)CC(c2nc(-c3ccc4ccc(-c5ccccc5)nc4c3)c3c(N)nccn23)C1	7.54
CC[C@@]1(O)C(=O)OCc2c1cc1n(c2=O)Cc2cc3c(CN(C)C)c(O)ccc3nc2-1	2.2
CC(C)(O)CCc1ccc(O)c2c(=O)c3c(O)c4c(cc3oc12)O[C@H]1OC=C[C@@]41O	0.065
CCc1c2c(nc3ccc(O)cc13)-c1cc3c(c(=O)n1C2)COC(=O)C3(O)CC (stereo not given)	0.241
COc1ccc(S(=O)(=O)N2CC[C@@H]3[C@@H](CO)Nc4ccc(-c5cccc(C#N)c5)cc4[C@@H]32)cc1	14.9
CCC(C)C(=O)OC1CC(C)C=C2C=CC(C)C(CCC(O)CC(O)CC(=O)O)C21 (stereo not given)	88
Cc1cc(Nc2cc(N3CCN(C)CC3)nc(Sc3ccc(NC(=O)C4CC4)cc3)n2)n[nH]1	8.49
Clc1ccc(-c2cnc3ccc(-c4ccccc4)cn23)cc1	3.58
CC(C)N1c2ccccc2C(c2ccc(F)cc2)C1/C=C/C(O)CC(O)CC(=O)O (stereo not given)	22.3
N#CC1=C(N)Oc2cc(N)ccc2C1c1ccccc1 (stereo not given)	15
COc1ccccc1-c1nnc2n1N=C(c1ccc(O)c(O)c1)CS2	19.2
COc1ccc(S(=O)(=O)N2CC[C@@H]3[C@@H](CO)Nc4ccc(-c5ccc(C#N)cc5)cc4[C@@H]32)cc1	12.2
COc1ccc(C(=O)CC2(O)C(=O)Nc3c(Cl)ccc(Cl)c32)cc1 (stereo not given)	8.13
Nc1ccn([C@@H]2O[C@H](CO)[C@H](O)C2O)c(=O)n1 (stereo not given in full)	3.04
CCOC(=O)CCNc1cc(N2CCc3ccccc3CC2)nc(-c2ccccn2)n1	16.5
COc1ccc(C2=Nn3c(nnc3-c3ccccc3OC)SC2)cc1OC	0.53
COc1ccc(C2=Nn3c(nnc3-c3ccccc3Cl)SC2)cc1OC	15.5
COc1ccc(-c2cc(NC=O)c3ncc(-c4ccc(OC)c(OC)c4)n3c2)cc1	3.25
COc1ccc(-c2cc(NC(C)=O)c3ncc(-c4ccc(OC)c(OC)c4)n3c2)cc1	17.9
Nc1ncnc2c1c(-c1cccc(OCc3ccccc3)c1)cn2C1CC(CN2CCCC2)C1 (stereo not given)	9.61
N#CC1=C(N)Oc2ccc3ccccc3c2C1c1cccc(F)c1 (stereo not given)	16.4
COc1ccc(C2=Nn3c(nnc3-c3ccccc3F)SC2)cc1OC	20.8
COc1ccc(-c2ccc3c(c2)[C@H]2[C@H](CCN2S(=O)(=O)c2ccc(OC)cc2)[C@@H](CO)N3)cc1	21.2

From PubChem BioAssay AID743471 (Broad Institute, 2014)
